# Test results reported in US9308198B2, “Treatment, prevention, and reversal of alcohol-induced brain disease” (priority 2006, dated 2016).
# How the values were obtained:
# [1] = system: primary cerebellar neuron cultures; assay: Membrane cholesterol content, primary cerebellar neuron cultures; type: cell-based, rat; conditions: for membrane cholesterol content: 10 mM for 3 hours in Locke's buffer, control and ethanol-exposed cerebellar cultures
# Protocol: In vitro experiments were used to examine the effects of ethanol on receptor binding and choline acetyltransferase (ChAT) and acetylcholinesterase (AChE) expression in cerebellar neurons. Primary neuronal cultures were generated with postnatal day 8 rat pup cerebellar tissue (Nikolic et al. Genes Dev. 10:816 (1996)). The cultures were maintained with Dulbecco's modified Eagle's medium (DMEM) supplemented with 5% fetal calf serum, 4 mM glutamine, 100 μM non-essential amino acid mixture (Gibco-BRL, Grand Island, N.Y.), 25 mM KCl, and 9 g/L glucose. Ethanol treatment was accomplished by placing the cultures (seeded in 6-well dishes or 96-well plates) in sealed chambers in which 50 mM ethanol was vaporized from a reservoir tray (de la Monte et al. Alcohol Clin. Exp. Res. 24:716 (2000); Banerjee et al. Alcohol Clin. Exp. Res. 22:2093 (1998)). Control cultures were identically treated but with water added to the reservoir tray. The chambers were flushed with gas containing 75% nitrogen, 20% oxygen, and 5% carbon dioxide. After 96 hours incubation at 37° C., the cells were harvested to measure insulin, IGF-I, and IGF-II receptor binding. […] To examine the effects of membrane cholesterol content on growth factor stimulated neuronal viability and function, identically treated 96-well cultures were stimulated with vehicle, 10 nM insulin, 10 nM IGF-I, or 25 nM IGF-II for 10 minutes and then analyzed for ATP content, or for 16 hours and then used to measure viability and ChAT or AChE immunoreactivity with the MICE assay (de la Monte et al., Biotechniques 26:1073 (1999)). ATP content was measured with the ATPLite assay (Packard, Meriden, Conn.). Viability was measured using the CyQuant assay (Molecular Probes, Eugene, Oreg.). Immunoreactivity was measured directly in the cultured wells using the microtiter immunocytochemical ELISA (MICE) assay (de la Monte et al., Biotechniques 26:1073 (1999)).
# ChAT = ChAT immunoreactivity (MICE assay); type: cell-based, rat
# Protocol: In vitro experiments were used to examine the effects of ethanol on receptor binding and choline acetyltransferase (ChAT) and acetylcholinesterase (AChE) expression in cerebellar neurons. Primary neuronal cultures were generated with postnatal day 8 rat pup cerebellar tissue (Nikolic et al. Genes Dev. 10:816 (1996)). The cultures were maintained with Dulbecco's modified Eagle's medium (DMEM) supplemented with 5% fetal calf serum, 4 mM glutamine, 100 μM non-essential amino acid mixture (Gibco-BRL, Grand Island, N.Y.), 25 mM KCl, and 9 g/L glucose. Ethanol treatment was accomplished by placing the cultures (seeded in 6-well dishes or 96-well plates) in sealed chambers in which 50 mM ethanol was vaporized from a reservoir tray (de la Monte et al. Alcohol Clin. Exp. Res. 24:716 (2000); Banerjee et al. Alcohol Clin. Exp. Res. 22:2093 (1998)). Control cultures were identically treated but with water added to the reservoir tray. The chambers were flushed with gas containing 75% nitrogen, 20% oxygen, and 5% carbon dioxide. After 96 hours incubation at 37° C., the cells were harvested to measure insulin, IGF-I, and IGF-II receptor binding. Alternatively, the cells were serum-starved for 12 hours and then stimulated with 10 nM insulin, […], 25 nM IGF-II, or vehicle for 16 hours, and RNA was harvested to measure ChAT and AChE expression. Parallel 96-well cultures stimulated with growth factors for 10 minutes were used to measure ATP, or for 16 hours to measure viability, and ChAT or AChE immunoreactivity. To investigate the role of membrane cholesterol content in relation to receptor binding, control and ethanol-exposed cells were treated with vehicle, 10 mM Methyl-β-cyclodextrin (MβCD), or 10 mM aqueous soluble cholesterol in Locke's buffer (154 mM NaCl, 5.6 mM KCl, 2.3 mM CaCl2, 1.0 mM MgCl2, 3.6 mM NaHCO3, 5 mM glucose, 5 mM Hepes, pH 7.4) for 3 hours and then harvested for binding assays. To examine the effects of membrane cholesterol content on growth factor stimulated neuronal viability and function, identically treated 96-well cultures were stimulated with vehicle, 10 nM insulin, 10 nM IGF-I, or 25 nM IGF-II for 10 minutes and then analyzed for ATP content, or for 16 hours and then used to measure viability and ChAT or AChE immunoreactivity with the MICE assay (de la Monte et al., Biotechniques 26:1073 (1999)). ATP content was measured with the ATPLite assay (Packard, Meriden, Conn.). Viability was measured using the CyQuant assay (Molecular Probes, Eugene, Oreg.). Immunoreactivity was measured directly in the cultured wells using the microtiter immunocytochemical ELISA (MICE) assay (de la Monte et al., Biotechniques 26:1073 (1999)).
# The concentration of ethanol used was within the range detected in human alcoholics (Fulop et al., Am. J. Med. 80:191 (1986); Jagger et al., Neurosurgery 15:303 (1984)). ChAT and AChE immunoreactivity were measured directly in the cultured cells using the MICE assay (cellular ELISA), with values normalized to cell density.
# The effects of cholesterol or MβCD treatment on neuronal viability (FIGS. 19A-19C), ATP production (energy metabolism; FIGS. 19D-19F), ChAT (FIGS. […]) and AChE (FIGS. 19J-19L) immunoreactivity were examined in cells that were treated as described above and stimulated 12 hours with vehicle (control), 10 nM insulin, 10 nM IGF-I, or 25 nM IGF-II in serum-free medium. All assays were performed using 96-well cultures. Viability was measured using the CyQuant assay and ATP content was measured using the ATPLite assay.
# [2] = 10 mM for 3 hours, control cells
Compound,membrane cholesterol content [1],basal and growth factor stimulated ChAT expression (ChAT; [2]),"insulin-, IGF-I-, and IGF-II-stimulated levels of ChAT (ChAT; 10 mM for 3 hours, ethanol-exposed cells, relative to vehicle-treated cells)",cerebellar neuron membrane cholesterol content ([1]; in vitro exposure to 50 mM ethanol for 96 hours),"ChAT immunoreactivity (ChAT; 50 mM ethanol for 96 hours, basal, insulin-stimulated and IGF-I stimulated, relative to control)",IGF-I- and IGF-II-stimulated ChAT (ChAT; [2]),insulin-stimulated ChAT (ChAT; [2]),"ChAT expression relative to control (ChAT; 10 mM for 3 hours, ethanol-exposed cells, independent of growth factor stimulation)"
CC(C)CCC[C@@H](C)[C@H]1CC[C@H]2[C@@H]3CC=C4C[C@@H](O)CC[C@]4(C)[C@H]3CC[C@]12C [cholesterol],significantly increased,muted,significantly increased,–,–,–,–,–
CCO [ethanol],–,–,–,significantly reduced,significantly reduced,–,–,–
Methyl-β-cyclodextrin [MβCD],significantly reduced,–,–,–,–,significantly increased,abolished the insulin-stimulated increases in ChAT,broadly reduced levels
